# System: Vaccinia virus
# Test: Concentration required to inhibit vaccinia virus induced cytopathogenic affects by 50%
# Format: functional, Orthopoxvirus vaccinia
# [1] = Orthopoxvirus vaccinia, read-out: MIC50
Structure (SMILES),MIC50 [1] [µg/mL],MIC50 [µg/mL]
OCC1CC(n2cnc3c(O)ncnc32)C(O)C1O (stereo not given),191,
Nc1ccn([C@@H]2C[C@H](CO)[C@@H](O)[C@H]2O)c(=O)n1 (stereo in doubt; form 2),57,
Nc1ncnc2c1ncn2[C@@H]1C[C@H](CO)[C@@H](O)[C@@H]1O,9,9
OCC1CC(n2nnc3c(O)ncnc32)C(O)C1O (stereo not given),467,

# From ChEMBL document CHEMBL1122513, “Synthesis and antiviral activity of carbocyclic analogues of 2'-deoxyribofuranosides of 2-amino-6-substituted-purines and of 2-amino-6-substituted-8-azapurines” (J Med Chem, 1984)
